In ChEMBL document CHEMBL3596180, “Evaluation of histone deacetylase inhibitors (HDACi) as therapeutic leads for human African trypanosomiasis (HAT)” (Bioorg Med Chem, 2015):
The source made the active and inactive calls. The rule behind the calls is not given here.

How the values were obtained:
[1] = tested on: Trypanosoma brucei brucei; assay: Antitrypanosomal activity against Trypanosoma brucei brucei 427 assessed as inhibition of parasite proliferation measured as ATP levels after 48 hrs by luciferase-based assay; assay type: functional, organism-based; details: Trypanosoma brucei, 427, 48 h
[2] = AUC in po dosed human measured under phase 1 trial; assay type: ADME, organism-based; details: in vivo
[3] = Half-life in iv dosed human measured under phase 1 trial; assay type: ADME, organism-based; details: in vivo
[4] = AUC in iv dosed human measured under phase 1/2 trial; assay type: ADME, organism-based; details: in vivo
[5] = Tmax in iv dosed human measured under phase 1 trial; assay type: ADME, organism-based; details: in vivo
[6] = Cmax in po dosed human measured under phase 1 trial; assay type: ADME, organism-based; parameters: route oral; details: in vivo
[7] = tested on: Trypanosoma brucei brucei; assay: Trypanocidal activity against Trypanosoma brucei brucei assessed as killing of parasite densities of 10^4 to 10^6 cells/ml at 2 uM after […] by clonal dilution method; assay type: functional, organism-based
[8] = Half-life in iv dosed human measured under phase 1/2 trial; assay type: ADME, organism-based; details: in vivo
[9] = Cmax in iv dosed human measured under phase 1/2 trial; assay type: ADME, organism-based; parameters: route intravenous; details: in vivo
[10] = Tmax in iv dosed human measured under phase 1/2 trial; assay type: ADME, organism-based; details: in vivo
[11] = AUC in iv dosed human measured under phase 1 trial; assay type: ADME, organism-based; details: in vivo
[12] = tested on: Trypanosoma brucei brucei; assay: Trypanocidal activity against Trypanosoma brucei brucei assessed as killing of parasite densities of 10^4 to 10^6 cells/ml at 180 uM after 4 hrs by clonal dilution method; assay type: functional, organism-based
[13] = Cmax in iv dosed human measured under phase 1 trial; assay type: ADME, organism-based; parameters: route intravenous; details: in vivo
[14] = Half-life in po dosed human measured under phase 1 trial; assay type: ADME, organism-based; details: in vivo
[15] = Tmax in po dosed human measured under phase 1 trial; assay type: ADME, organism-based; details: in vivo

In the case of CC(C)(CCc1ccccc1)C(=O)Nc1ccc(C(=O)NO)cc1, the EC50 [1] is reported as 6.55 µM.
Work on O=C(Nc1ccccc1-c1cn2c(CN3CCNCC3)csc2n1)c1cnc2ccccc2n1 yielded an EC50 [1] of 0.892 µM.
With O=C(/C=C\c1cccc(C(=O)NO)c1)NO the EC50 [1] was 7 µM.
CN(C)Cc1c(C(=O)NCCOc2ccc(C(=O)NO)cc2)oc2ccccc12 [ABEXINOSTAT] gave an EC50 [1] of 8.61 µM.
O=C(/C=C/c1cccc(S(=O)(=O)Nc2ccccc2)c1)NO [BELINOSTAT] showed an AUC [2] of 2700 ng·h/mL, a half-life [3] of 0.69 h and an AUC [4] of 47500 ng·h/mL. The Tmax [5] was 0 h, the Cmax [6] was 2140 nM and the Activity [7] was “inactive”. It also gave a half-life [8] of 3.49 h, an EC50 [1] of 2.15 µM and an EC90 [1] of 4.01 µM. For the same molecule, the Cmax [9] was 183000 nM, the Tmax [10] was 0.45 h and the AUC [11] was 9990 ng·h/mL. The Activity [12] was “inactive”, the Cmax [13] was 101000 nM and the half-life [14] was 1.5 h. For the same molecule, the Tmax [15] was 1.9 h.
O=C(/C=C/c1ccc(CN(CCO)CCc2c[nH]c3ccccc23)cc1)NO [DACINOSTAT] gave a half-life [3] of 8.29 h, a Tmax [5] of 2 h and an EC50 [1] of 2.6 µM. It also gave an AUC [11] of 2310 ng·h/mL and a Cmax [13] of 2170 nM.
CCN(CC)Cc1ccc2cc(COC(=O)Nc3ccc(C(=O)NO)cc3)ccc2c1 [GIVINOSTAT] showed an AUC [2] of 671 ng·h/mL, a Cmax [6] of 208 nM and an EC50 [1] of 10.9 µM. For the same molecule, the half-life [14] was 6 h and the Tmax [15] was 2.1 h.
Molecule O=C(/C=C/C#Cc1ccc(NS(=O)(=O)c2ccccc2)cc1)NO [OXAMFLATIN] has an EC50 [1] of 4.06 µM.
